Here are results for three substances from PMC12392035, “Development of Carborane-Based Benzothiazole Analogues as Cannabinoid Receptor Type 2 (CB2R) Ligands” (ACS Omega, 2025).

Test [1] addresses T1, human CB2R (cannabinoid receptor type 2) (Homo sapiens, UniProt P34972).
T1 construct: gene CNR2; stably transfected in CHO cells; crude membrane homogenates
Description: competitive radioligand binding, CHO membranes. Conditions: [3H]WIN55212-2 displacement; mean of two values; read-out: KiCB2R (nM) mean ^a. An excerpt: competitive radioligand binding, CHO membranes on human CB2R (cannabinoid receptor type 2)

Test [2] concerns the target T2, human CB1R (cannabinoid receptor type 1) (Homo sapiens, UniProt P21554).
T2 construct: gene CNR1; stably transfected in CHO cells; crude membrane homogenates
The test can be described thus: competitive radioligand binding, CHO membranes. The conditions noted are these: [3H]SR141716A displacement; mean of two values; read-out: KiCB1R (nM) mean ^a. An excerpt:
competitive radioligand binding, CHO membranes on human CB1R (cannabinoid receptor type 1)

T2 sequence (P21554 whole entry): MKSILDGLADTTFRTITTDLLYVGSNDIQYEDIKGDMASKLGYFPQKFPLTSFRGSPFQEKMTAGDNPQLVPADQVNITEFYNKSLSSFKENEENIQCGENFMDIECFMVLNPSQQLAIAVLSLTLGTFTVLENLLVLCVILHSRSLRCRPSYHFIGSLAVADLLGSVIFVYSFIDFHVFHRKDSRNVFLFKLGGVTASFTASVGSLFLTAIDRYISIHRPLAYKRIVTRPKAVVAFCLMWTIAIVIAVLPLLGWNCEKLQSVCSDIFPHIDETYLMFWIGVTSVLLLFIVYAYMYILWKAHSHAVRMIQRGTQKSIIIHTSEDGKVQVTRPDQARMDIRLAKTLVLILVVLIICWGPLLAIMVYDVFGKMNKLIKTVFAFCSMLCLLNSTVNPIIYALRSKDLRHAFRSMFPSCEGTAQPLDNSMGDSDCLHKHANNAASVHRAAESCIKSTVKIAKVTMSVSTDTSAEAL
T1 sequence (P34972 whole entry): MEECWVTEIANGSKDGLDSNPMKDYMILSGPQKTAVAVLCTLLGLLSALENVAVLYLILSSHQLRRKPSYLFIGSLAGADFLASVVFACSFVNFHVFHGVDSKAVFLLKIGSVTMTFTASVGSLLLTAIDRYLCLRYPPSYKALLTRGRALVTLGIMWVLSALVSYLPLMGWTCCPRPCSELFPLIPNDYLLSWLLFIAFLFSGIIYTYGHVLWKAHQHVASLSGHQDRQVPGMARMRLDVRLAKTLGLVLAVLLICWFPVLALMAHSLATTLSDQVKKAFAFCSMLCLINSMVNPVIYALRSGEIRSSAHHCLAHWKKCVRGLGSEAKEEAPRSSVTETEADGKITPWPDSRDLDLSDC

As for “(Z)-N-(6-Methoxy-3-(2-methoxyethyl)-benzo[d]-thiazol-2(3H)-ylidene)(1,7-closo-dicarba-dodecaborane)-carboxamide [2m]”, the Ki is 2.47 nM in test [1] and 42300 nM in test [2].

Take “(Z)-N-(6-Methoxy-3-(2-methoxyethyl)-benzo[d]-thiazol-2(3H)-ylidene)(1,2-closo-dicarba-dodecaborane)-carboxamide [2o]”: the Ki worked out at 7.37 nM in test [1] and 76800 nM in test [2].

As to “(Z)-N-(6-Methoxy-3-(2-methoxyethyl)-benzo[d]-thiazol-2(3H)-ylidene)(1,12-closo-dicarba-dodecaborane)-carboxamide [2p]”, the Ki in test [1] worked out at 3.17 nM; in test [2], 8670 nM.
